The METLIN SMRT retention time set (Domingo-Almenara et al. 2019)

Experiment: gradient 5% acetonitrile 3 min, to 50% in 2 min, to 85% in 15 min, held 3 min, 100 µL/min
Conditions: column: Zorbax Extend-C18 2.1 x 50 mm; eluents: water / acetonitrile, 0.1% formic acid
In short: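 The mobile phases were water and acetonitrile, each with 0.1% formic acid, pumped at 100 μL/min through a Zorbax Extend-C18 column (2.1 × 50 mm, 1.8 μm). Pure standards were injected as mixtures of ~100 molecules and detected by a quadrupole time-of-flight mass spectrometer in positive and negative ionization mode. Retention time came from computationally picked adduct peaks, each inspected by hand.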

Row | RP-LC retention time | Structure (SMILES)
1 | 644 s | CCN(CC)C(=O)c1ccc2c(c1)ncn2CCNC(=O)Nc1ccc(Br)cc1
2 | 784 s | CCn1nccc1C(=O)NCCn1c(=O)n(Cc2cccc(C)c2)c2cccnc21
3 | 779 s | O=C(NCc1cccs1)C1CCN(Cc2cc3ccccc3n2Cc2cccc(F)c2)CC1
4 | 641 s | COC(=O)c1ccc(CSc2nnc(-c3cn(C)nc3OC)n2C)cc1
5 | 746 s | COc1ccccc1CNC(=O)C1CCCN(c2ncnc3c2oc2ccccc23)C1 (stereo not drawn)
6 | 750 s | CS(=O)(=O)N1CCC(CNC(=O)c2cc(-c3ccccc3)on2)CC1
7 | 1130 s | Cc1ccc(-c2nc(-c3ccc4c(c3)oc(=O)n4C(C)C)no2)cc1C
8 | 1150 s | Cc1ccc(-c2nc(NC(=O)CCc3ccccc3)sc2C)cc1
9 | 758 s | O=C(CSc1nnc2c3sc(N4CCCC4)nc3ncn12)Nc1ccc2c(c1)OCCO2
10 | 943 s | CCOc1ccccc1NC(=O)Cn1c(=O)n(-c2cccc(C)c2)c(=O)c2c1cc(C)n2C
11 | 805 s | O=C(NCCc1c[nH]c2ccc(Cl)cc12)c1ccc(F)cc1-n1cnnn1
12 | 726 s | COC(=O)C1C(=O)C2=C(CC1C)NC(=O)CC2c1cccc(OC)c1 (stereo not drawn)
13 | 764 s | O=C(Cc1ccccc1)NC1CCN(c2cc(-c3ccc(Cl)cc3)[nH]n2)C1 (stereo not drawn)
14 | 1140 s | COCCCn1c(=O)c2ccccc2n(Cc2nc(-c3ccccc3Cl)no2)c1=O
15 | 1010 s | COc1ccc(Cl)cc1NC(=O)C1(c2ccccc2)CCOCC1
16 | 799 s | Cc1nc(-c2ccccc2)sc1C(=O)NC1CC1
17 | 788 s | COc1ccc(-c2nc(C)cc3nn(CC(=O)NCc4ccccc4)c(=O)n23)cc1
18 | 863 s | COC(=O)c1cc(OCC(=O)Nc2ccc3c(c2)OCO3)c2cc(Cl)ccc2n1
19 | 672 s | CCCC(=O)Nc1ccc2c(c1)CN(C(=O)Cc1ccc(F)cc1)C(C(=O)N(C)C)C2 (stereo not drawn)
20 | 762 s | O=C(NC1CC1)c1cn(-c2ccc(-c3nc(C4CC4)no3)cn2)cn1
21 | 1300 s | CCOC(=O)c1ccc2nc(C(F)(F)F)nc(NCCCc3ccccc3)c2c1
22 | 1180 s | COc1cccc(-c2nc(-c3ccc(S(=O)(=O)N4CCCC4)cc3)no2)c1
23 | 781 s | CCN1c2cc(F)ccc2C(=O)NC12CCN(C(=O)c1ccc(OC)cc1OC)CC2
24 | 834 s | CC(C(=O)Nc1ccc(F)cc1F)C1CCN(C(=O)Nc2ccccc2)CC1 (stereo not drawn)
25 | 817 s | COc1ccc(Cn2nnc3cc(C(=O)Nc4cc(C)on4)ccc32)cc1
26 | 939 s | COc1cc2c(cc1CNC(=O)c1ccc(Br)cc1)OCCCO2

Row | RP-LC retention time | Structure (SMILES)
27 | 800 s | O=C(c1ccc(F)c(Cl)c1)N1CCC2(CC1)N=C(c1ccccc1)NO2
28 | 1090 s | CCCN1C(=O)c2cc(S(=O)(=O)Nc3ccccc3Cl)ccc2Oc2cccnc21
29 | 914 s | COc1ccc(-c2nnc(COc3cccc(NC(=O)c4ccsc4)c3)o2)cc1
30 | 1020 s | Cc1ccccc1-n1c(-c2ccc(Cl)cc2)cn2c3c(=O)n(C)c(=O)n(C)c3nc12
31 | 917 s | CCOc1ccc(NC(=O)C2CCN(S(=O)(=O)c3cc(-c4noc(C)n4)cs3)CC2)cc1
32 | 1060 s | O=S(=O)(c1cc(-c2nnc(C3CC3)o2)co1)N1CCN(c2cccc(Cl)c2)CC1
33 | 824 s | C=CCn1c(C)c(CC(=O)NC(C)CC)c(=O)n2nc(-c3ccc(C)cc3)nc12 (stereo not drawn)
34 | 1200 s | CSc1ccc(C2c3[nH]c4ccccc4c3CCN2C(=O)Cc2cccs2)cc1 (stereo not drawn)
35 | 922 s | CCOC(=O)c1ccc(NC(=O)Cn2cccc(-c3nc(-c4ccc(F)cc4)no3)c2=O)cc1
36 | 807 s | CC(C)NC(=O)c1ccc(OCC2CCCN2C(=O)Cc2cccs2)cc1 (stereo not drawn)
37 | 792 s | CON(C)C(=O)N1N=C(c2cc(F)ccc2F)S[C@@]1(CCCN)c1ccccc1
38 | 1100 s | Cc1nn(C(C)C(=O)Nc2ccc(F)cc2F)c(=O)c2c(-n3cccc3)n(-c3ccccc3)nc12 (stereo not drawn)
39 | 780 s | COc1ccc(NC(=O)Cn2c(=O)c(CCC(=O)NCC(C)C)nc3ccccc32)c(OC)c1
40 | 569 s | CCOc1ncccc1CNC(=O)c1ccc2nc[nH]c2c1
41 | 882 s | Cn1c(=O)n(C)c2cc(S(=O)(=O)c3ccc(F)cc3)c(NC(=O)c3ccccc3F)cc21
42 | 940 s | Cc1cc(=O)n(CC(=O)NCc2ccc3c(c2)OCO3)c(-c2ccc(F)cc2)n1
43 | 654 s | CCOC(=O)c1ccc(NC(=O)COc2cccc3ccc(N4CCOCC4)nc23)cc1
44 | 630 s | COc1ccc(CN2CC(C(=O)N3CCN(c4cc(=O)n(C)c(=O)n4C)CC3)CC2=O)cc1 (stereo not drawn)
45 | 655 s | CCN1C(=O)c2cccnc2Sc2cc(NC(=O)COC)ccc21
46 | 730 s | COc1ccc(CC(=O)Nc2nc3ccc(S(=O)(=O)NC(C)C)cc3s2)cc1OC
47 | 730 s | CC1(C(=O)Nc2ccc(F)c(Cl)c2)Oc2cccnc2NC1=O (stereo not drawn)
48 | 910 s | O=C(CC1COc2ccccc2NC1=O)NCCc1ccc(Cl)cc1 (stereo not drawn)
49 | 777 s | COc1ccc(NC(=O)C2CCCN(c3ncnc4c3nc3n4CCCCC3)C2)c(OC)c1 (stereo not drawn)
50 | 906 s | O=C(Cn1c(=O)cc(-c2nc(C3CC3)no2)c2ccccc21)Nc1ccc2c(c1)OCCO2
51 | 666 s | CC(C)Cn1c(=O)c(C(=O)NCc2ccc(N3CCCCC3)cc2)nc2cccnc21
52 | 600 s | CCCc1nc2cccnc2n1C1CCN(C(=O)Nc2ccc3c(c2)OCCO3)C1 (stereo not drawn)

More lines, now with the values behind:

Row | Structure (SMILES) | RP-LC retention time
53 | CC(C)CN1C(=O)CCc2cc(NS(=O)(=O)c3ccc(Cl)cc3)ccc21 | 946 s
54 | O=C1NCCCc2c1oc1ccc(O)cc21 | 567 s
55 | COCCN1C(=O)CS(=O)C12CCN(C(=O)c1ccsc1)CC2 (stereo not drawn) | 593 s
56 | CCOc1ccc(C2C3=C(CCCC3=O)Nc3c2c(=O)n(C)c(=O)n3C)cc1OC (stereo not drawn) | 806 s
57 | COc1ccc2c(c1)C1(CCN(C(=O)NCCc3ccccc3)C1)C(=O)N2 (stereo not drawn) | 750 s
58 | Cc1ccc(C)c(S(=O)(=O)N2CCC(N3CCN(Cc4ccccc4)C(=O)C3=O)CC2)c1 | 861 s
59 | Cc1nc(N2CCOCC2)c2c(C(=O)NCc3ccc(Cl)cc3)c(C)oc2n1 | 797 s
60 | CCCNC(=O)c1ccc(S(N)(=O)=O)cc1 | 653 s
61 | CC1=C(c2ccc(Cl)cc2)S(=O)(=O)N=C1N1CCC(C(=O)NC(C)C)CC1 | 779 s
62 | COCC(=O)NC1CCC12CCN(S(=O)(=O)c1c(C)nn(C)c1C)CC2 (stereo not drawn) | 657 s
63 | COC(=O)CC1=CC(SCC(=O)N2CCC(C)CC2)=Nc2ccccc2N1 | 1000 s
64 | Cc1nnc(NC(=O)CN2CCC(c3nnc(C(F)(F)F)o3)CC2)s1 | 545 s
65 | CCS(=O)(=O)N1CC(n2cc(C(=O)NCC3CC3)nn2)C1 | 664 s
66 | Cc1noc(C)c1CC(=O)N1CCCn2ccnc2C1C1CCCC1 (stereo not drawn) | 595 s
67 | COCCOC1CCOC2(CCN(C(=O)c3ccsc3)CC2)C1 (stereo not drawn) | 670 s
68 | O=C(NCC1CCCCC1)C1CCCN(c2nccn3nc(-c4ccccc4Cl)cc23)C1 (stereo not drawn) | 1040 s
69 | CC1(C(=O)NC2CCCC2)CN(S(=O)(=O)c2ccccc2)CC(=O)N1c1ccc(F)cc1 (stereo not drawn) | 892 s
70 | CCCNC(=O)c1cc(-c2ccccc2)cn1CC | 977 s

Row | Structure (SMILES) | RP-LC retention time
71 | O=C(NCc1csc(-c2cccs2)n1)C1CCN(S(=O)(=O)c2ccccc2)CC1 | 870 s
72 | CC1CC(=O)c2cnc(N3CCN(Cc4ccc5c(c4)OCO5)CC3)nc2C1 (stereo not drawn) | 632 s
73 | O=C(NCCCN1CCCCC1)c1ccc2c(c1)NC(=O)C1CCCCN21 (stereo not drawn) | 600 s
74 | COc1cc2c(cc1OC)[C@@H](C(=O)N(C)c1ccc(Cl)cc1)[C@@H]1CCCCN1C2=O | 719 s
75 | CCC(=O)Nc1nc2cc(NC(=O)C3CCN(S(=O)(=O)N4CCOCC4)CC3)ccc2s1 | 719 s
76 | Cc1ccc(S(=O)(=O)N2CCC(C)(C(=O)NCc3ccccc3)CC2)cc1 | 932 s
77 | Clc1ccccc1N1CCN(c2ncnc3[nH]ncc23)CC1 | 660 s
78 | CCC(C)NC(=O)C1CC(=O)N(c2ccc3c(c2)CCN3C(C)=O)C1 (stereo not drawn) | 630 s
79 | CNC(=O)N1CCCC(c2nc(CCOCC3CCCC3)no2)C1 (stereo not drawn) | 759 s
80 | CN(C1CCOCC1)C1CCN(C(=O)c2ccc(Cl)cc2)CC1 | 589 s
81 | CC(C)n1c(N2CCN(C(=O)CSc3ccccc3)CC2)cc(=O)n(C(C)C)c1=O | 902 s
82 | CCCCN1CN(c2ccc(C)cc2)c2ncccc2S1(=O)=O | 1110 s
83 | Cc1nnc2ccc(N3CCC(C(=O)NCCCOC(C)C)CC3)nn12 | 643 s
84 | O=C(Nc1cccc(Cl)c1)C1CCCN(S(=O)(=O)c2c[nH]c(C(=O)N3CCCCCC3)c2)C1 (stereo not drawn) | 964 s
85 | CCC(C)NC(=O)CC1CCN(C(=O)c2[nH]c(C)cc2C)CC1 (stereo not drawn) | 686 s
86 | CCOC(=O)C1CCN(C(=O)c2nc(N3CCCC3)c3c(C)cc(C)nc3n2)CC1 | 631 s
87 | Cc1ccc2c(C)nc(Nc3ncc4c(n3)CCCC4=O)nc2c1 | 598 s
88 | Cc1ccc(C(=O)N2CCC3(CC2)c2nccn2-c2ccccc2CN3CC(C)C)cc1F | 786 s
